Measured values taken from article PMC4447455, “Towards Elucidating Carnosic Acid Biosynthesis in Lamiaceae: Functional Characterization of the Three First Steps of the Pathway in Salvia fruticosa and Rosmarinus officinalis” (PLoS ONE, 2015).

Key:
SfKSL [1] = molecular target: T1, SfKSL (Salvia fruticosa, UniProt A0A0C5QH30); experiment: coupled assay with SfCPS, GC-MS of product; assay type: biochemical; conditions: CDP formed in situ by SfCPS from 200 uM GGDP; pH 7.0, 20 mM MgCl2, 0.2 mM MnCl2, room temperature overnight
T1 construct: gene KSL; pseudomature SfKSLm without predicted N-terminal transit peptide (49 residues); full ORF 1755 bp; lacks gamma domain
T1 sequence (A0A0C5QH30 50-584): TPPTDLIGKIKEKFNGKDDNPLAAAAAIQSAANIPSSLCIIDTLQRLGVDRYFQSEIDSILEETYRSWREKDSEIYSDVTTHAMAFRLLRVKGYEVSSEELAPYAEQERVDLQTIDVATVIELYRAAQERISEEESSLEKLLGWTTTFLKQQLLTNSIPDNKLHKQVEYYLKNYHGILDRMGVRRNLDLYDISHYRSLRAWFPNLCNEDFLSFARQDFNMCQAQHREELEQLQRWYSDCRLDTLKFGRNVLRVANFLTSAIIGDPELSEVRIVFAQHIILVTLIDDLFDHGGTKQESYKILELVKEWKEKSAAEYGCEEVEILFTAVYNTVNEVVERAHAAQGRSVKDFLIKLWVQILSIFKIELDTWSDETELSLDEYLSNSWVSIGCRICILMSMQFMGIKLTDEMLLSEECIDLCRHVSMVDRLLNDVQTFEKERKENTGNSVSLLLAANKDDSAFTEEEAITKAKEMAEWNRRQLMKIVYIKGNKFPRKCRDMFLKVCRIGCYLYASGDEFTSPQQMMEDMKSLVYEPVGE

SfCPS = molecular target: T2, SfCPS (Salvia fruticosa, UniProt A0A0A7RQ84); experiment: GC-MS of dephosphorylated product (copalol); assay type: biochemical; conditions: pH 7.0, 20 mM MgCl2, 0.2 mM MnCl2, 60 uM GGDP, room temperature overnight
T2 construct: gene CDS; pseudomature SfCPSm without predicted N-terminal transit peptide (30 residues); full ORF 2391 bp

RoFS1 = molecular target: T3, RoFS1 (Salvia rosmarinus, UniProt A0A0C5Q4Y6); experiment: yeast co-expression, GC-MS; assay type: cell-based; conditions: co-expressed RoCPS1m, RoKSL1f, PtCPR2; also shown in N. benthamiana
T3 construct: gene CYP76AH22; P450 ORF in pWTDH3, expressed in S. cerevisiae AM113 with RoCPS1m, RoKSL1f and poplar reductase PtCPR2; also N. benthamiana with SfCPS, SfKSL, AtCPR1
T3 sequence (A0A0C5Q4Y6 1-493): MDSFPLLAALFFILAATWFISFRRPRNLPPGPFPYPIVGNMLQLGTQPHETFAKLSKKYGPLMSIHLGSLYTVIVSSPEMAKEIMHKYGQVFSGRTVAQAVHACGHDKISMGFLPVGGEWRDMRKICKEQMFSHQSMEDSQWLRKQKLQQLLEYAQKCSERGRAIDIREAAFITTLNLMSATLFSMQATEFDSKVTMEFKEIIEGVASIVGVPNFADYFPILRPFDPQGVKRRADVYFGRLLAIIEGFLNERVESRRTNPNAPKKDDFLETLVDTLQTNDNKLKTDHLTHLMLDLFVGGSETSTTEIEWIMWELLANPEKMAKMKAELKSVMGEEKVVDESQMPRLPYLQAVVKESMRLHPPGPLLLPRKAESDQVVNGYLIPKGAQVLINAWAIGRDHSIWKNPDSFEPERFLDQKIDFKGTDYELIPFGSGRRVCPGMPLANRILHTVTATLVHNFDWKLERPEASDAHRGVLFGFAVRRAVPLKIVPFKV

RoFS2 = molecular target: T4, RoFS2 (Salvia rosmarinus, UniProt A0A0C5QEW3); experiment: yeast co-expression, GC-MS; assay type: cell-based; conditions: co-expressed RoCPS1m, RoKSL1f, PtCPR2; also shown in N. benthamiana
T4 construct: gene FS2; P450 ORF in pWTDH3, expressed in S. cerevisiae AM113 with RoCPS1m, RoKSL1f and poplar reductase PtCPR2; also N. benthamiana with SfCPS, SfKSL, AtCPR1

SfFS = molecular target: T5, SfFS (Salvia fruticosa, UniProt A0A0C5QRZ2); experiment: yeast co-expression, GC-MS; assay type: cell-based; conditions: co-expressed SfCPS, SfKSL, PtCPR2; also shown in N. benthamiana
T5 construct: gene CYP76AH24; P450 ORF in pWTDH3, expressed in S. cerevisiae AM104 with SfCPSm, SfKSLm and poplar reductase PtCPR2; also N. benthamiana with AtCPR1
T5 sequence (A0A0C5QRZ2 1-492): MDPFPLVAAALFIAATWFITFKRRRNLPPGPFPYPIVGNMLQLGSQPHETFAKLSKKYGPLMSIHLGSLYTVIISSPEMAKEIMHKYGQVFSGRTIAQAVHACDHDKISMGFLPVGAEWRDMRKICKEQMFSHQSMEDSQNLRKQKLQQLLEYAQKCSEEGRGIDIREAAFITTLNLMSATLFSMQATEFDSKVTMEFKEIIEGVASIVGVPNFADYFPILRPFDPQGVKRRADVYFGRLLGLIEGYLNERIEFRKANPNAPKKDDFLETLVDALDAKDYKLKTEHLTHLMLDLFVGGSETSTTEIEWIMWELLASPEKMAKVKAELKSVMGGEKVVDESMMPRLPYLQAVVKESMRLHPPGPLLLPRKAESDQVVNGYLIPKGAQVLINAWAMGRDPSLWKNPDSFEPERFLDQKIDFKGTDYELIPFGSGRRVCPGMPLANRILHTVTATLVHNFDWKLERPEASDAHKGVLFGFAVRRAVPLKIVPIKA

SfKSL [2] = molecular target: T1, SfKSL; experiment: coupled assay with SfCPS, GC-MS; NMR of product from yeast; assay type: biochemical; conditions: CDP formed in situ by SfCPS from 200 uM GGDP; pH 7.0, 20 mM MgCl2, 0.2 mM MnCl2, room temperature overnight

T2 sequence (A0A0A7RQ84 entry or part of it): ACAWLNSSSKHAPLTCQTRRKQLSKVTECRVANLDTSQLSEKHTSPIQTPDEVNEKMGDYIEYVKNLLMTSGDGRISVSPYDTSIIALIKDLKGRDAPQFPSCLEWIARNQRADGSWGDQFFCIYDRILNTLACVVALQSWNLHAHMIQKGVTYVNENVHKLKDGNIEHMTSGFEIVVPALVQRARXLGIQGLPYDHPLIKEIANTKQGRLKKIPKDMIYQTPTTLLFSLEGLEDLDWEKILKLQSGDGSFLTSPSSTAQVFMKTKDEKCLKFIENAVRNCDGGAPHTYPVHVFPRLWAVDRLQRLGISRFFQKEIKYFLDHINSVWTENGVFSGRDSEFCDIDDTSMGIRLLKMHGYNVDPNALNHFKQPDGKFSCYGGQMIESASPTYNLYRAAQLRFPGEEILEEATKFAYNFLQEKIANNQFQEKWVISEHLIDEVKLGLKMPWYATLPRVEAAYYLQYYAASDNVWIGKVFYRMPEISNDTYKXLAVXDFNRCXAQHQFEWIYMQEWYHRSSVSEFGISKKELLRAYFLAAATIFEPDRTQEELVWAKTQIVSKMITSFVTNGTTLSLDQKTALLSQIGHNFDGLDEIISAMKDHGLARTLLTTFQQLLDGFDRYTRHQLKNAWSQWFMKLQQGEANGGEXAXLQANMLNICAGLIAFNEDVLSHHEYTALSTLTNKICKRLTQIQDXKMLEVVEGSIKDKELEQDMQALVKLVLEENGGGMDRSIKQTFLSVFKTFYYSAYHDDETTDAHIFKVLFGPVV
T4 sequence (A0A0C5QEW3 entry or part of it): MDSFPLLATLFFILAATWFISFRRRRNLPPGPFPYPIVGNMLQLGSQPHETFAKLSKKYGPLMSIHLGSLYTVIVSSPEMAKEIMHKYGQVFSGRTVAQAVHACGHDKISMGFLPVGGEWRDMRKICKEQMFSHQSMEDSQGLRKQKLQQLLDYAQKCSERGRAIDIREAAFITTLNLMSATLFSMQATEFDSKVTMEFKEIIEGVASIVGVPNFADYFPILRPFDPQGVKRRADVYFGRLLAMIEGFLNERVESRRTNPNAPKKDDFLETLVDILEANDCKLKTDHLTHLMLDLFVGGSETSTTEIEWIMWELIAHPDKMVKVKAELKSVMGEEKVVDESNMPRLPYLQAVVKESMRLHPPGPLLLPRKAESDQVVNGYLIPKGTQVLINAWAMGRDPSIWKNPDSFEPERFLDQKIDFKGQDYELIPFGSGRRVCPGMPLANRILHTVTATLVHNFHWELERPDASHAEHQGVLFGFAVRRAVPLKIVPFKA

Compound: C=C1CC[C@H]2C(C)(C)CCC[C@]2(C)[C@H]1CC/C(C)=C/COP(=O)(O)OP(=O)(O)O [CDP]
- coupled assay with SfCPS, GC-MS of product (SfKSL [1]): simultaneously with SfCPS in order to provide the necessary CDP substrate
- GC-MS of dephosphorylated product (copalol) (SfCPS; detected as copalol after alkaline phosphatase): identify the dephosphorylated product of the SfCPS catalyzed reaction as copalol

Compound: CC(C)=CCC/C(C)=C/CC/C(C)=C/CC/C(C)=C/COP(=O)(O)OP(=O)(O)O [GGDP]
- GC-MS of dephosphorylated product (copalol) (SfCPS): His-tagged SfCPS protein was affinity purified and incubated with GGDP

Compound: CC(C)c1cc2c(cc1O)[C@@]1(C)CCCC(C)(C)[C@@H]1CC2 [ferruginol]
- yeast co-expression, GC-MS (RoFS1): GC-MS revealed the formation of ferruginol in all three strains analyzed
- yeast co-expression, GC-MS (RoFS2): GC-MS revealed the formation of ferruginol in all three strains analyzed
- yeast co-expression, GC-MS (SfFS): GC-MS revealed the formation of ferruginol in all three strains analyzed

Compound: CC(C)C1=CCC2=C(CC[C@H]3C(C)(C)CCC[C@]23C)C1 [miltiradiene]
- coupled assay with SfCPS, GC-MS; NMR of product from yeast (SfKSL [2]): revealed a peak, which most closely corresponded to miltiradiene
